Publication PMC9481151, “Discovery of new symmetrical and asymmetrical nitrile-containing 1,4-dihydropyridine derivatives as dual kinases and P-glycoprotein inhibitors: synthesis, in vitro assays, and in silico studies” (Journal of Enzyme Inhibition and Medicinal Chemistry, 2022)
In brackets after ≈: the same amount, converted by molar mass.

Columns and labels:
HCT-116 cells [1] = experiment: Annexin V–FITC apoptosis assay; assay type: cell-based, human; settings: HCT-116, 10 µM, 24 h
Text: Apoptosis induction is the most important mechanism by chemotherapeutics killing tumour cells.[62]^,[63] Phosphatidylserine (PS) is translocated from the inside to the outside of the plasma membrane during apoptosis, causing cellular alterations. Annexin-V binds to PS and can be employed as a sensitive probe on the plasma membrane’s outer side.[64]^,[65]
PS externalisation was identified using the apoptosis detection kit (Annexin V-FITC/PI) (BD Biosciences) in accordance with the manufacturer’s guidelines.[79]

SK-OV-3 = experiment: NCI single dose (10 µM) SRB screen; assay type: cell-based, human; settings: ovarian cancer, 48 h
EGFR = EGFR (Homo sapiens, UniProt P00533); experiment: EGFR kinase inhibitory activity; assay type: biochemical; settings: for EGFR Potency: (IC50 lapatinib/IC50 Compound)*100; for IC50: read-out: EGFR IC50 ± SD
EGFR, sequence (P00533 25-1210): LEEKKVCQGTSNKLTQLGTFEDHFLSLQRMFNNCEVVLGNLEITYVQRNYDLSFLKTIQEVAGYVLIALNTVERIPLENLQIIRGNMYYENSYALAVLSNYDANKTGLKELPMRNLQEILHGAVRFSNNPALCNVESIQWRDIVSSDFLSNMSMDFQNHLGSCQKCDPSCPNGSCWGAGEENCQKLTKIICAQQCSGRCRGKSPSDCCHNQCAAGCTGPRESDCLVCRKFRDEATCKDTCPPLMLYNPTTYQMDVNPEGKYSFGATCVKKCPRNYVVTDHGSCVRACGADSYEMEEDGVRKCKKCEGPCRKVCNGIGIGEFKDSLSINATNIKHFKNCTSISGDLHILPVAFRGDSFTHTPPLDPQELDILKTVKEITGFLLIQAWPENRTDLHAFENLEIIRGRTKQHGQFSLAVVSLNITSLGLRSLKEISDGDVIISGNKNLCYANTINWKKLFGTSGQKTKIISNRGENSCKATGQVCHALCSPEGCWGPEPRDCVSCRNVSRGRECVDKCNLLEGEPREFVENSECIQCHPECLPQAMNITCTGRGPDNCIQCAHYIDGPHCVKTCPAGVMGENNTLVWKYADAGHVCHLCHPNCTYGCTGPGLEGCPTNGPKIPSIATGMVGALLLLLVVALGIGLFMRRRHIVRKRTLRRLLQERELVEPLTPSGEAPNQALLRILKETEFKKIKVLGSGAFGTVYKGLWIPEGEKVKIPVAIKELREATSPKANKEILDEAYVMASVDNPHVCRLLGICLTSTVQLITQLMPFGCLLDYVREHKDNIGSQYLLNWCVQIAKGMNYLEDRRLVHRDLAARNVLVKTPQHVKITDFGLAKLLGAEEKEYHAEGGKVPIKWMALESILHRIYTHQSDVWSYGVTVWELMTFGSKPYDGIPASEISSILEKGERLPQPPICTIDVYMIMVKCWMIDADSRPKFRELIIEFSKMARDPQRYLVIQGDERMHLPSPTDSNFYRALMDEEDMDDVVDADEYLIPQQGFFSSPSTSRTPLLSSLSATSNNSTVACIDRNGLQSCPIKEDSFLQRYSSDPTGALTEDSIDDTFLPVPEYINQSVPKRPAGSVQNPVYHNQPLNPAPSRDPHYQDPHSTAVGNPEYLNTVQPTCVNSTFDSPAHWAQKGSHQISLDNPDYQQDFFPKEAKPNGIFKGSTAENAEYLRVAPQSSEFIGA

HCT-116 = experiment: NCI single dose (10 µM) SRB screen; assay type: cell-based, human; settings: colon cancer, 48 h
EKVX = experiment: NCI single dose (10 µM) SRB screen; assay type: cell-based, human; settings: non-small cell lung cancer, 48 h
KM12 = experiment: NCI single dose (10 µM) SRB screen; assay type: cell-based, human; settings: colon cancer, 48 h
HL-60(TB) = experiment: NCI single dose (10 µM) SRB screen; assay type: cell-based, human; settings: leukaemia, 48 h
SK-MEL-2 = experiment: NCI single dose (10 µM) SRB screen; assay type: cell-based, human; settings: melanoma, 48 h
HCT-116 cells [2] = experiment: In vitro cytotoxicity; settings: Homo sapiens, HCT-116, read-out: Cytotoxicity IC50, HCT-116
Pseudomonas aeruginosa = experiment: Agar well diffusion method; settings: for % activity index, P. aeruginosa: relative to ciprofloxacin; for zone of inhibition at 1000 µg/mL: Pseudomonas aeruginosa, 24 h, read-out: Diameter of inhibition zone, P. aeruginosa
BTK = BTK (Homo sapiens, UniProt Q06187); experiment: BTK inhibitory activity; assay type: biochemical; settings: for BTK Potency: (IC50 lapatinib/IC50 Compound)*100; for IC50: read-out: BTK IC50 ± SD
BTK, sequence (Q06187 whole entry): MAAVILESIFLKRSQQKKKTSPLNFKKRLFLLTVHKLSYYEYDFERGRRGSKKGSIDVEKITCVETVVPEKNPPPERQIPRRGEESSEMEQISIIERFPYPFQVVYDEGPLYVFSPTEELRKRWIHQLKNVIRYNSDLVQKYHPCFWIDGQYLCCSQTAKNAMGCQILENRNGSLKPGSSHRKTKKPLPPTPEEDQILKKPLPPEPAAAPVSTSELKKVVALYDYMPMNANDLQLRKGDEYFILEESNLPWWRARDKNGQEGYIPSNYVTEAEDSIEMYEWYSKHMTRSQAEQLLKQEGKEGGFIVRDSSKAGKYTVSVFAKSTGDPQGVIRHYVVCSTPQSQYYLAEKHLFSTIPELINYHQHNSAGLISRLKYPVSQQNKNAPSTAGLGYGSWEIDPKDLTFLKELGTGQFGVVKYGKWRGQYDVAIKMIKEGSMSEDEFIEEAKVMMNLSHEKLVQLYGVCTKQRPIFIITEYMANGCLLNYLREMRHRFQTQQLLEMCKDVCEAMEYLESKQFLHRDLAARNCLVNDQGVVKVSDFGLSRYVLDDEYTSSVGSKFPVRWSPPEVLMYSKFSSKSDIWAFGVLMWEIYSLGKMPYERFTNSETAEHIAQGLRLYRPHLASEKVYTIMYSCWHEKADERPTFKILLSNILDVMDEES

HER-2 = HER-2 (Homo sapiens, UniProt P04626); experiment: HER-2 kinase inhibitory activity; assay type: biochemical; settings: for HER-2 Potency: (IC50 lapatinib/IC50 Compound)*100; for IC50: read-out: HER-2 IC50 ± SD
HER-2, sequence (P04626 23-1255): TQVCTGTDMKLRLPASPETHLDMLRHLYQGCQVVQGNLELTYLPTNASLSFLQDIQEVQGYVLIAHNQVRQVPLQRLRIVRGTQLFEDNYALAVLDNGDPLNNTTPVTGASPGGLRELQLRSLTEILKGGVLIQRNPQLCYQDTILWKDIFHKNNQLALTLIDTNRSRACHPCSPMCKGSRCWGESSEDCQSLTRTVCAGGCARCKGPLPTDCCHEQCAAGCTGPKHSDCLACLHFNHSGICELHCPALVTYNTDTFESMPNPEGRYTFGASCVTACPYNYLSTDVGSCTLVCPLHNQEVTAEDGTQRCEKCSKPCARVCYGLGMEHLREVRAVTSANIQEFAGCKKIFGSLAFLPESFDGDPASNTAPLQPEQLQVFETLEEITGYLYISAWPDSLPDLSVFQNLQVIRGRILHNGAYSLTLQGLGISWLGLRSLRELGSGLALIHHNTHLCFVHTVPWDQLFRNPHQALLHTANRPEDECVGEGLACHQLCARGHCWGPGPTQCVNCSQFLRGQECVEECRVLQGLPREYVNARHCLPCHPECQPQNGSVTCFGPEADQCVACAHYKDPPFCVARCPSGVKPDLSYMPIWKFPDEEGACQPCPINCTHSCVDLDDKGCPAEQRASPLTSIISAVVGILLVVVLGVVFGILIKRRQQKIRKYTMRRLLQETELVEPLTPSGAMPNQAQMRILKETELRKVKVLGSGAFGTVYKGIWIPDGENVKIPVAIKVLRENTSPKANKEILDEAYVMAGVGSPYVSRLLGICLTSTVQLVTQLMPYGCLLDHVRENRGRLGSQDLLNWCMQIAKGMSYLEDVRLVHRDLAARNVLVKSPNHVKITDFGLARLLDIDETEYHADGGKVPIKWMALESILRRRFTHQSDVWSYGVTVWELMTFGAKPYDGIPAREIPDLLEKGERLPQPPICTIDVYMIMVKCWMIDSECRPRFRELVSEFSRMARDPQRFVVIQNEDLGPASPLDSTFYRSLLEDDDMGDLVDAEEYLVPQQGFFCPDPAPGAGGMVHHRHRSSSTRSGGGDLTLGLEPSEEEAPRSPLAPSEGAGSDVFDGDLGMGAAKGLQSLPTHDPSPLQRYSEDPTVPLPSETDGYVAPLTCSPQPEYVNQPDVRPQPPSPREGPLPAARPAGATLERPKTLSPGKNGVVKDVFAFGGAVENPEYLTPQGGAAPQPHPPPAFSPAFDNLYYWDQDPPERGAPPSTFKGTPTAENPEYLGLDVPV

K-562 = experiment: NCI single dose (10 µM) SRB screen; assay type: cell-based, human; settings: leukaemia, 48 h
A498 = experiment: NCI single dose (10 µM) SRB screen; assay type: cell-based, human; settings: renal cancer, 48 h
NCI-H460 = experiment: NCI single dose (10 µM) SRB screen; assay type: cell-based, human; settings: non-small cell lung cancer, 48 h
SK-MEL-5 = experiment: NCI single dose (10 µM) SRB screen; assay type: cell-based, human; settings: melanoma, 48 h
ACHN = experiment: NCI single dose (10 µM) SRB screen; assay type: cell-based, human; settings: renal cancer, 48 h
MCF7 = experiment: NCI single dose (10 µM) SRB screen; assay type: cell-based, human; settings: breast cancer, 48 h
HCT-116 cells [3] = experiment: In vitro cell cycle analysis (DNA flow cytometry); assay type: cell-based, human; settings: HCT-116, 24 h, IC50 concentrations
Procedure: Targeting the cancer cell cycle has been developed as a encouraging approach for cancer therapy.[66]
The cells were centrifuged, frozen in cold 75% ethanol, washed in phosphate buffered saline, resuspended with […] RNase, then stained with […] PI, and analysed with a FACS Calibur (Becton Dickinson, BD, Franklin Lakes, NJ). The cell cycle distributions were determined using Becton Dickinson’s CellQuest software version 5.1.[80]

CCRF-CEM = experiment: NCI single dose (10 µM) SRB screen; assay type: cell-based, human; settings: leukaemia, 48 h
HCT-116/ADR cells = experiment: cells; settings: Homo sapiens, HCT-116, read-out: Cytotoxicity IC50, HCT-116/ADR
[4] = tested on: drug-resistant HCT-116/ADR cells; experiment: Potentiation of DOX cytotoxicity (reversal DOX effect, P-gp modulation); assay type: cell-based, human; settings: IC50 (DOX) without modulator / IC50 (DOX) with modulator
OVCAR-5 = experiment: NCI single dose (10 µM) SRB screen; assay type: cell-based, human; settings: ovarian cancer, 48 h
HT29 = experiment: NCI single dose (10 µM) SRB screen; assay type: cell-based, human; settings: colon cancer, 48 h
A. flavus = experiment: MIC, two-fold microbroth dilution method; settings: Aspergillus flavus, read-out: MIC (µg/mL) A. flavus
S. aureus = experiment: MIC, two-fold microbroth dilution method; settings: Staphylococcus aureus, read-out: MIC (µg/mL) S. aureus
P. aeruginosa = experiment: MIC, two-fold microbroth dilution method; settings: Pseudomonas aeruginosa, read-out: MIC (µg/mL) P. aeruginosa
B. subtilis = experiment: MIC, two-fold microbroth dilution method; settings: Bacillus subtilis, read-out: MIC (µg/mL) B. subtilis
E. coli = experiment: MIC, two-fold microbroth dilution method; settings: Escherichia coli, read-out: MIC (µg/mL) E. coli
C. albicans = experiment: MIC, two-fold microbroth dilution method; settings: Candida albicans, read-out: MIC (µg/mL) C. albicans

Compound	early apoptosis ratio (lower-right quadrant) (HCT-116 cells [1])	late apoptosis ratio (upper-right quadrant) (HCT-116 cells [1])	GI% SK-OV-3 (SK-OV-3)	EGFR Potency (EGFR) [%]	IC50 (EGFR) [nM]	GI% HCT-116 (HCT-116) [%]	GI% EKVX (EKVX) [%]	GI% KM12 (KM12) [%]	GI% HL-60(TB) (HL-60(TB)) [%]	GI% SK-MEL-2 (SK-MEL-2)	IC50 (HCT-116 cells [2]) [nM]	% activity index, P. aeruginosa (Pseudomonas aeruginosa)	BTK Potency (BTK) [%]	IC50 (BTK) [nM]	HER-2 Potency (HER-2) [%]	IC50 (HER-2) [nM]	GI% K-562 (K-562) [%]	GI% A498 (A498) [%]	GI% NCI-H460 (NCI-H460) [%]	GI% SK-MEL-5 (SK-MEL-5) [%]	also measured
CCOC(=O)C1=C(C)NC(C)=C(C(=O)OCc2ccccc2)C1c1cccc(C#N)c1 (racemic) [Compound 2l, (±)-3- Benzyl 5-ethyl 4-(3-cyanophenyl)-2,6-dimethyl-1,4-dihydropyridine-3,5-dicarboxylate]	4.37–6.17%	9.45–11.28%	24%	72.29	75.2 ± 0.95	86	62	74	83	75%	1110 ± 450	– (Values below 25 are of limited value and not shown as they refer either to inactive or non-diffusing compounds)	96.35	63.8 ± 0.55	89.10	81.7 ± 0.92	83	104	77	45	GI% ACHN (ACHN): 52%; GI% MCF7 (MCF7): 78%; %G0-G1 (HCT-116 cells [3]): 39.17–43.25%; %G2-M (HCT-116 cells [3]): 26.03–31.84%; %Pre-G1 (HCT-116 cells [3]): 15.57–19.36%; GI% CCRF-CEM (CCRF-CEM): 74%; IC50 (HCT-116/ADR cells): 15830 ± 130 nM; RF (reversal fold activity) [4]: 10.05; GI% OVCAR-5 (OVCAR-5): 38%; GI% HT29 (HT29): 88%
CC1=C(C(=O)OCc2ccccc2)C(c2cccc(C#N)c2)C(C(=O)OCc2ccccc2)=C(C)N1 [Compound 1g, Dibenzyl 4-(3-cyanophenyl)-2,6-dimethyl-1,4-dihydropyridine-3,5-dicarboxylate]	4.37–6.17%	9.45–11.28%	– (Only GI% ≥ 10 are shown)	87.44	62.2 ± 0.76	76	50	45	62	19%	990 ± 580	69.6%	101.99	60.27 ± 0.42	103.20	70.55 ± 0.63	69	21	64	55	MIC (A. flavus): > 64 µg/mL; zone of inhibition at 1000 µg/mL (Pseudomonas aeruginosa): 16 mm; GI% ACHN (ACHN): 52%; GI% MCF7 (MCF7): 53%; %G0-G1 (HCT-116 cells [3]): 39.17–43.25%; %G2-M (HCT-116 cells [3]): 26.03–31.84%; %Pre-G1 (HCT-116 cells [3]): 15.57–19.36%; MIC (S. aureus): 64 µg/mL (≈ 134 µM); MIC (P. aeruginosa): 32 µg/mL (≈ 66.9 µM); GI% CCRF-CEM (CCRF-CEM): 54%; IC50 (HCT-116/ADR cells): 10610 ± 100 nM; RF (reversal fold activity) [4]: 23.48; GI% OVCAR-5 (OVCAR-5): 19%; MIC (B. subtilis): 32 µg/mL (≈ 66.9 µM); MIC (E. coli): 32 µg/mL (≈ 66.9 µM); MIC (C. albicans): 64 µg/mL (≈ 134 µM); GI% HT29 (HT29): 48%
COC(=O)C1=C(C)NC(C)=C(C(=O)OCc2ccccc2)C1c1cccc(C#N)c1 (racemic) [Compound 2e, (±)-3-Benzyl 5-methyl 4-(3-cyanophenyl)-2,6-dimethyl-1,4-dihydropyridine-3,5-dicarboxylate]	4.37–6.17%	9.45–11.28%	– (Only GI% ≥ 10 are shown)	67.68	80.4 ± 1.26	71	26	39	43	– (Only GI% ≥ 10 are shown)	1270 ± 420	30.4%	74.91	82.1 ± 1.4	95.13	76.5 ± 0.87	56	10	64	37	zone of inhibition at 1000 µg/mL (Pseudomonas aeruginosa): 7 mm; GI% ACHN (ACHN): 28%; GI% MCF7 (MCF7): 29%; %G0-G1 (HCT-116 cells [3]): 39.17–43.25%; %G2-M (HCT-116 cells [3]): 26.03–31.84%; %Pre-G1 (HCT-116 cells [3]): 15.57–19.36%; GI% CCRF-CEM (CCRF-CEM): 37%; IC50 (HCT-116/ADR cells): 29400 ± 450 nM; RF (reversal fold activity) [4]: 7.68; GI% OVCAR-5 (OVCAR-5): 21%; GI% HT29 (HT29): 31%
